Test results: US20060069132A1, “Azolecarboxamide herbicides” (priority 2004, published 2006)

Tests used:
[1] = test system: morningglory; assay: Test A pre-/postemergence herbicide test; type: in vivo, Ipomoea spp.
In short: (§1)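 Sandy loam soil given preemergence directed spray; plants at 2 to 10 cm, one- to two-leaf stage, sprayed to runoff postemergence, compounds in non-phytotoxic solvent with surfactant. Injury rated visually versus untreated controls after about ten greenhouse days, 0 (no effect) to 100 (complete control); dash means not tested.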

[2] = test system: small flower umbrella sedge; assay: Test B flooded paddy test; type: in vivo, Cyperus difformis; conditions: 1000 g ai/ha, visual rating, scale 0 to 100 (0 no effect, 100 complete control), 13 to 15 days
In short: (§2)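 Paddy species grown to the 2-leaf stage under flooding; blackgrass sprayed postemergence at 2–18 cm (1- to 4-leaf stage). Plants kept in a greenhouse for 13 to 15 days, then visually rated against controls on 0 (no effect) to 100 (complete control).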

[3] = test system: large crabgrass; assay: Test B pre-/postemergence herbicide test; type: in vivo, Digitaria sanguinalis
In short: (§3)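 Visual rating, 0 (no effect) to 100 (complete control), versus untreated controls after 13–15 d in greenhouse. Pre- and postemergence applications (postemergence plants 2–18 cm, 1–4 leaves); flooded paddy arm at 2-leaf stage. Compounds in non-phytotoxic solvent plus surfactant.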

[4] = test system: morningglory; assay: Test B pre-/postemergence herbicide test; type: in vivo, Ipomoea coccinea
In short: (§4)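 Test chemicals in a non-phytotoxic solvent mixture with surfactant were applied preemergence to seeded species and postemergence to plants 2-18 cm tall (1- to 4-leaf stage); rice and barnyardgrass were also tested in a flooded paddy at the 2-leaf stage. Visual rating versus controls after 13-15 days in greenhouse, scale 0 (no effect) to 100 (complete control).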

[5] = test system: corn; assay: Test B pre-/postemergence herbicide test; type: in vivo, Zea mays
In short: as §3

[6] = test system: ducksalad; assay: Test B flooded paddy test; type: in vivo, Heteranthera limosa; conditions: 1000 g ai/ha, visual rating, scale 0 to 100 (0 no effect, 100 complete control), 13 to 15 days
In short: as §2

[7] = test system: wheat; assay: Test B postemergence herbicide test; type: in vivo, Triticum aestivum; set-up: key to Wheat plant response rating: 0 = no effect, 100 = complete control; conditions: scale 0 (no effect) to 100 (complete control)
In short: (§5)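 Greenhouse test; postemergence application to plants at 1–4 leaves (2–18 cm); paddy species at 2 leaves; evaluated visually vs controls at 13–15 days; scale 0–100 (100 = complete control).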

[8] = test system: rice; assay: Test B flooded paddy test; type: in vivo, Oryza sativa; conditions: 1000 g ai/ha, visual rating, scale 0 to 100 (0 no effect, 100 complete control), 13 to 15 days
In short: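 Read-out: visual comparison with controls, scored 0 to 100, where 100 means complete control and 0 no effect. Formulated chemicals were applied postemergence to plants 2–18 cm tall (1- to 4-leaf), or to flooded-paddy plants at the 2-leaf stage, then held 13 to 15 days under glass.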

[9] = test system: velvetleaf; assay: Test B pre-/postemergence herbicide test; type: in vivo, Abutilon theophrasti
In short: as §3

[10] = test system: lambsquarters; assay: Test B pre-/postemergence herbicide test; type: in vivo, Chenopodium album
In short: as §3

[11] = test system: giant foxtail; assay: Test B pre-/postemergence herbicide test; type: in vivo, Setaria faberi
In short: as §3

[12] = test system: blackgrass; assay: Test B postemergence herbicide test; type: in vivo, Alopecurus myosuroides; conditions: scale 0 (no effect) to 100 (complete control)
In short: as §2

[13] = test system: barnyardgrass; assay: Test A pre-/postemergence herbicide test; type: in vivo, Echinochloa crus-galli
In short: as §1

[14] = test system: wild oat; assay: Test B postemergence herbicide test; type: in vivo, Avena fatua; conditions: scale 0 (no effect) to 100 (complete control)
In short: as §5

[15] = test system: cocklebur; assay: Test B pre-/postemergence herbicide test; type: in vivo, Xanthium strumarium
In short: as §4

[16] = test system: Surinam grass; assay: Test B pre-/postemergence herbicide test; type: in vivo, Urochloa decumbens
In short: as §3

[17] = test system: velvetleaf; assay: Test A pre-/postemergence herbicide test; type: in vivo, Abutilon theophrasti
In short: as §1

[18] = test system: barnyardgrass; assay: Test B flooded paddy test; type: in vivo, Echinochloa crus-galli; conditions: 1000 g ai/ha, visual rating, scale 0 to 100 (0 no effect, 100 complete control), 13 to 15 days
In short: as §2

[19] = test system: giant foxtail; assay: Test A pre-/postemergence herbicide test; type: in vivo, Setaria faberi
In short: as §1

[20] = test system: redroot pigweed; assay: Test A pre-/postemergence herbicide test; type: in vivo, Amaranthus retroflexus
In short: as §1

[21] = test system: pigweed; assay: Test B pre-/postemergence herbicide test; type: in vivo, Amaranthus retroflexus
In short: as §3

[22] = test system: barnyardgrass; assay: Test B pre-/postemergence herbicide test; type: in vivo, Echinochloa crus-galli
In short: as §4

[23] = test system: large crabgrass; assay: Test A pre-/postemergence herbicide test; type: in vivo, Digitaria sanguinalis
In short: as §1

[24] = Postemergence, 125 g ai/ha, 0 to 100 scale, 0 no effect, 100 complete control
[25] = Postemergence, 500 g ai/ha, 0 to 100 scale, 0 no effect, 100 complete control
[26] = Preemergence, 500 g ai/ha, visual rating, 0 to 100 scale (0 no effect, 100 complete control)
[27] = preemergence, 125 g ai/ha, visual injury, 0 to 100 scale (0 no effect, 100 complete control)
[28] = 500 g ai/ha, visual rating 0-100, 0 no effect, 100 complete control, preemergence
[29] = Postemergence, 500 g ai/ha, visual rating after 13 to 15 days, scale 0 (no effect) to 100 (complete control)
[30] = postemergence, 125 g ai/ha, visual rating, scale 0 (no effect) to 100 (complete control)
[31] = preemergence, 125 g ai/ha, 0 to 100 scale, 0 is no effect, 100 is complete control
[32] = Postemergence, 500 g ai/ha, visual rating after 13 to 15 days
[33] = postemergence, 125 g ai/ha, visual rating

## CC(=NO)c1cccc(NC(=O)c2cc(C(C)(C)C)nn2C(C)C)c1 [Compound 110]
[1]; [24]
  Morningglory plant response rating: 0
[1]; [25]
  Morningglory plant response rating: 10
[1]; [26]
  Morningglory plant response rating: 20
[1]; [27]
  Morningglory plant response rating: 10
[2]
  Sedge, Umbrella plant response rating: 20
[3]; [28]
  Plant response rating, Crabgrass, Large: 100
[3]; [29]
  Plant response rating, Crabgrass, Large: 20
[3]; [30]
  Crabgrass, Large plant response rating: 10
[3]; [31]
  Plant response rating, Crabgrass, Large: 80
[4]; [28]
  Plant response rating, Morningglory: 60
[4]; [29]
  Plant response rating, Morningglory: 30
[4]; [30]
  Morningglory plant response rating: 20
[4]; [31]
  Plant response rating, Morningglory: 20
[5]; [28]
  Plant response rating, Corn: 0
[5]; [29]
  Plant response rating, Corn: 20
[5]; [30]
  Corn plant response rating: 10
[5]; [31]
  Plant response rating, Corn: 0
[6]
  Ducksalad plant response rating: 0
[7]; [32]
  Plant response rating, Wheat: 30
[7]; [33]
  Wheat plant response rating: 10
[8]
  Rice plant response rating: 20
[9]; [28]
  Plant response rating, Velvetleaf: 10
[9]; [29]
  Plant response rating, Velvetleaf: 40
[9]; [30]
  Velvetleaf plant response rating: 30
[9]; [31]
  Plant response rating, Velvetleaf: 0
[10]; [28]
  Plant response rating, Lambsquarters: 90
[10]; [29]
  Plant response rating, Lambsquarters: 60
[10]; [30]
  Lambsquarters plant response rating: 40
[10]; [31]
  Plant response rating, Lambsquarters: 20
[11]; [28]
  Plant response rating, Foxtail, Giant: 20
[11]; [29]
  Plant response rating, Foxtail, Giant: 10
[11]; [30]
  Foxtail, Giant plant response rating: 10
[11]; [31]
  Plant response rating, Foxtail, Giant: 10
[12]; [32]
  Plant response rating, Blackgrass: 0
[12]; [33]
  Blackgrass plant response rating: 0
[13]; [24]
  Barnyardgrass plant response rating: 30
[13]; [25]
  Barnyardgrass plant response rating: 30
[13]; [26]
  Barnyardgrass plant response rating: 5
[13]; [27]
  Barnyardgrass plant response rating: 10
[14]; [32]
  Plant response rating, Oat, Wild: 0
[14]; [33]
  Oat, Wild plant response rating: 0
[15]; [28]
  Plant response rating, Cocklebur: 10
[15]; [29]
  Plant response rating, Cocklebur: 40
[15]; [30]
  Cocklebur plant response rating: 10
[15]; [31]
  Plant response rating, Cocklebur: 0
[16]; [28]
  Plant response rating, Surinam Grass: 10
[16]; [29]
  Plant response rating, Surinam Grass: 30
[16]; [30]
  Surinam Grass plant response rating: 20
[16]; [31]
  Plant response rating, Surinam Grass: 10
[17]; [24]
  Velvetleaf plant response rating: 10
[17]; [25]
  Velvetleaf plant response rating: 10
[17]; [26]
  Velvetleaf plant response rating: 10
[17]; [27]
  Velvetleaf plant response rating: 10
[18]
  Barnyardgrass plant response rating: 30
[19]; [24]
  Foxtail, Giant plant response rating: 20
[19]; [25]
  Foxtail, Giant plant response rating: 25
[19]; [26]
  Foxtail, Giant plant response rating: 0
[19]; [27]
  Foxtail, Giant plant response rating: 0
[20]; [24]
  Pigweed plant response rating: 40
[20]; [25]
  Pigweed plant response rating: 50
[20]; [26]
  Pigweed plant response rating: 10
[20]; [27]
  Pigweed plant response rating: 10
[21]; [28]
  Plant response rating, Pigweed: 10
[21]; [29]
  Plant response rating, Pigweed: 50
[21]; [30]
  Pigweed plant response rating: 20
[21]; [31]
  Plant response rating, Pigweed: 0
[22]; [28]
  Plant response rating, Barnyardgrass: 10
[22]; [29]
  Plant response rating, Barnyardgrass: 20
[22]; [30]
  Barnyardgrass plant response rating: 10
[22]; [31]
  Plant response rating, Barnyardgrass: 10
[23]; [24]
  Crabgrass, Large plant response rating: 25
[23]; [25]
  Crabgrass, Large plant response rating: 30
[23]; [26]
  Crabgrass, Large plant response rating: 20
[23]; [27]
  Crabgrass, Large plant response rating: 15
